Literature values, collected in patent US20080293724A1, “Methods Using Hydralazine Compounds and Isosorbide Dinitrate or Isosorbide Mononitrate” (NITROMED, INC., priority 2006, published 2008).
Structures can show the parent of a compound that is named as a salt.

solubility in alcohol (alcohol)	solubility in ether (ether)	Compound	solubility in water	solubility in organic solvents (organic solvents such as ethanol, ether and chloroform)
slightly soluble	very slightly soluble	NNc1nncc2ccccc12 [Hydralazine hydrochloride, hydralazine hydrochloride]	soluble	
		O=[N+]([O-])O[C@H]1CO[C@H]2[C@@H]1OC[C@H]2O[N+](=O)[O-] [isosorbide dinitrate, 1,4,3,6-dianhydro-D-glucitol-2,5-dinitrate]	sparingly soluble	freely soluble
